Data as given in the kinase profiling compilation of Christmann-Franck et al. (2016).

Tests used:
Assay in all cases: KINOMEscan competition binding
Conditions in all cases: compound 10.0 µM
RPS6KA2 KD1 (human) = RPS6KA2 KD1 (human) (UniProt Q15349)
[1] = system: EIF2AK4 KD2 (human), Q9P2K8 [S808G]
SIK2 (human) = SIK2 (human) (UniProt Q9H0K1)
MAPK4 (human) = MAPK4 (human) (UniProt P31152)
MKNK1 (human) = MKNK1 (human) (UniProt Q9BUB5)
PRKCI (human) = PRKCI (human) (UniProt P41743)
AKT2 (human) = AKT2 (human) (UniProt P31751)
RPS6KA4 KD2 (human) = RPS6KA4 KD2 (human) (UniProt O75676)
MYLK3 (human) = MYLK3 (human) (UniProt Q32MK0)
Chain of MYLK3 (human) (Q32MK0 whole entry, looked up): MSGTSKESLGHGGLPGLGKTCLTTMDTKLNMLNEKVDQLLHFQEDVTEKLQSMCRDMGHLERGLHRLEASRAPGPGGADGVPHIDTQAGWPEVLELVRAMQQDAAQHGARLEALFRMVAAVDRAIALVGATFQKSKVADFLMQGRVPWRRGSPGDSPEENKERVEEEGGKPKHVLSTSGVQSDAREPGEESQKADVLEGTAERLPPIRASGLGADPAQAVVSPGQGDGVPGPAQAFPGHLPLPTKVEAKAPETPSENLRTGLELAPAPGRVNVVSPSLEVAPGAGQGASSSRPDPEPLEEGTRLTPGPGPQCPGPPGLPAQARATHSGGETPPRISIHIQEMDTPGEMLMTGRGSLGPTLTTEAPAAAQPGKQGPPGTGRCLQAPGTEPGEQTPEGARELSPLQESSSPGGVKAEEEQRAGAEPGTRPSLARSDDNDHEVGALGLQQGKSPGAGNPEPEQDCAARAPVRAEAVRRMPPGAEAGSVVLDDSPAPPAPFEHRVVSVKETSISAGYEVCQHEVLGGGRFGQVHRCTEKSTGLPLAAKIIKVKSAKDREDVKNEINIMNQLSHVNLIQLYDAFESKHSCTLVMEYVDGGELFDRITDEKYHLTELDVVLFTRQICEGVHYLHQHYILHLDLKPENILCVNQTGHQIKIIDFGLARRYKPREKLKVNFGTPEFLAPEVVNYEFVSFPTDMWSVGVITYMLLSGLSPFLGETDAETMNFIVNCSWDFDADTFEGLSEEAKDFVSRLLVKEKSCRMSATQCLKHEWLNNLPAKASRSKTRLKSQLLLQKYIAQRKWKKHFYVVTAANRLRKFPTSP

INSR (human) = INSR (human) (UniProt P06213)
ABL2 (human) = ABL2 (human) (UniProt P42684)
CAMK4 (human) = CAMK4 (human) (UniProt Q16566)
LIMK2 (human) = LIMK2 (human) (UniProt P53671)
TLK2 (human) = TLK2 (human) (UniProt Q86UE8)
Chain of TLK2 (human) (Q86UE8 whole entry, looked up): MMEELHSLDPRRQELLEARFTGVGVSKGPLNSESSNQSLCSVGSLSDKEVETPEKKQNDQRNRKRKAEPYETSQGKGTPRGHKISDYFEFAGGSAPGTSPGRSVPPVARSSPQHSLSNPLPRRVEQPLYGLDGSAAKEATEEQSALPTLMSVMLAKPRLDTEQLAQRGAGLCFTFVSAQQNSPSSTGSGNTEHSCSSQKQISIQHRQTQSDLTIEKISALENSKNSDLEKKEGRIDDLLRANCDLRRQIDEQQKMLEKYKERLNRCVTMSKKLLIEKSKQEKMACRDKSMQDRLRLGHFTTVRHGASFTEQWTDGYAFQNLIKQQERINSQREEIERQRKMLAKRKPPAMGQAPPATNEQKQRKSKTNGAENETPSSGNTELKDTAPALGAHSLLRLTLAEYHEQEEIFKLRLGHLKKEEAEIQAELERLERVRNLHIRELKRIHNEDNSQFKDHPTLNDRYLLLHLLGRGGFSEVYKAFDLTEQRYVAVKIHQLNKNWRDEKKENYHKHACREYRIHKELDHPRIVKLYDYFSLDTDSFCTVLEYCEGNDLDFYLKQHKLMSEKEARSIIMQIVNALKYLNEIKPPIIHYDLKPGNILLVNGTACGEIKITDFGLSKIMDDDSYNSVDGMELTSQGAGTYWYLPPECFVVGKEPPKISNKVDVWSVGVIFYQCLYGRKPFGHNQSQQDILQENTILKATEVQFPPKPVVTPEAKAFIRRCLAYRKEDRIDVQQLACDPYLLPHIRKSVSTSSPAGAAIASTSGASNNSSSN

[2] = system: FGFR3 (human), P22607 [G697C]
GSK3A (human) = GSK3A (human) (UniProt P49840)
DSTYK (human) = DSTYK (human) (UniProt Q6XUX3)
BLK (human) = BLK (human) (UniProt P51451)
SNRK (human) = SNRK (human) (UniProt Q9NRH2)
EPHB1 (human) = EPHB1 (human) (UniProt P54762)
DAPK2 (human) = DAPK2 (human) (UniProt Q9UIK4)
TAOK2 (human) = TAOK2 (human) (UniProt Q9UL54)
ROCK1 (human) = ROCK1 (human) (UniProt Q13464)
CaMK1 (human) = CaMK1 (human) (UniProt Q14012)
DDR1 (human) = DDR1 (human) (UniProt Q08345)
IRAK1 (human) = IRAK1 (human) (UniProt P51617)
IRAK3 (human) = IRAK3 (human) (UniProt Q9Y616)
[3] = system: KIT (human), P10721 [D816H]
CSNK1G2 (human) = CSNK1G2 (human) (UniProt P78368)
AKT3 (human) = AKT3 (human) (UniProt Q9Y243)
Chain of AKT3 (human) (Q9Y243 whole entry, looked up): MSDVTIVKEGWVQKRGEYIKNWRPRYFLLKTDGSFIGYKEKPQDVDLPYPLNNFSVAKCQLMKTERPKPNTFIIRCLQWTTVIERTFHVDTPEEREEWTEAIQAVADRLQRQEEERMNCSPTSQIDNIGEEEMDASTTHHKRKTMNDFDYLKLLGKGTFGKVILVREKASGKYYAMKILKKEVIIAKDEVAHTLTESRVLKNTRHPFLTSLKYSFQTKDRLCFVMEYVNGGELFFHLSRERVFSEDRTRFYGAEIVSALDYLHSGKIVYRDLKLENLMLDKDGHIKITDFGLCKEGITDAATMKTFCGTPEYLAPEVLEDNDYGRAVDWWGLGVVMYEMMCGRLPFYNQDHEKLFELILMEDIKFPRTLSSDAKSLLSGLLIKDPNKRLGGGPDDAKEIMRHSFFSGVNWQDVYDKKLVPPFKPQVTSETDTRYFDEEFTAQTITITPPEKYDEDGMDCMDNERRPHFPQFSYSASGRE

HIPK3 (human) = HIPK3 (human) (UniProt Q9H422)
Chain of HIPK3 (human) (Q9H422 whole entry, looked up): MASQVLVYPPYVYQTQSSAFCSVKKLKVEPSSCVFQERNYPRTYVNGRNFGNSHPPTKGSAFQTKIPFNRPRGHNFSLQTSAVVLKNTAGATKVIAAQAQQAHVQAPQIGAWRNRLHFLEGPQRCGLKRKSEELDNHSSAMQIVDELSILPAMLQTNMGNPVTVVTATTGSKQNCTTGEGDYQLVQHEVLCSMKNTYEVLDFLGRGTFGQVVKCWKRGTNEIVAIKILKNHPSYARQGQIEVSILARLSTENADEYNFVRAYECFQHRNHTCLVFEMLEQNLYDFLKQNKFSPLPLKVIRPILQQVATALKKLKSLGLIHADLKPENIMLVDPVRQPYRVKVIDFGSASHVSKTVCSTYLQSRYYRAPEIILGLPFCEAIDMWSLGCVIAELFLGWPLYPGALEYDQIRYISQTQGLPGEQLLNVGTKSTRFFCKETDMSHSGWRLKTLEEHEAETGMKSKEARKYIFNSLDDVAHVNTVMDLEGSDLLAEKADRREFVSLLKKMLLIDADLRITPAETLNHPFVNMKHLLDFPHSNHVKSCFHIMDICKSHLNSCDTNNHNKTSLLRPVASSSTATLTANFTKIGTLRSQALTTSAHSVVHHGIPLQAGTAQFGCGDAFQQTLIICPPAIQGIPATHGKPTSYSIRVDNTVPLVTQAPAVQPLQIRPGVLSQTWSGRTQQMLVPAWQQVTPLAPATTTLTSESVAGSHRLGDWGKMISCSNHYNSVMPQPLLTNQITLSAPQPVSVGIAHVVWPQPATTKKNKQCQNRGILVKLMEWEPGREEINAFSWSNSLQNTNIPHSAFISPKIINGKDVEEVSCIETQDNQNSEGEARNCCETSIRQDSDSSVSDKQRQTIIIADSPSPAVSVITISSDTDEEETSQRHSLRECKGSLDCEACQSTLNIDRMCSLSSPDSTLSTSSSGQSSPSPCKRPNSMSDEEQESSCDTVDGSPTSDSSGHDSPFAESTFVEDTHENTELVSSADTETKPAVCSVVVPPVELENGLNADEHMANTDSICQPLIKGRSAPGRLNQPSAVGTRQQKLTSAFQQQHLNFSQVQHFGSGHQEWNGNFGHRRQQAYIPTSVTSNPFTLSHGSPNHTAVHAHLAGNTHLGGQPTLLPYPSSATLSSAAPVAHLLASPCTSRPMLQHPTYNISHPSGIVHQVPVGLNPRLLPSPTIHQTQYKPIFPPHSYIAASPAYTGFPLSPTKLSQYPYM

CDKL1 (human) = CDKL1 (human) (UniProt Q00532)
CSK (human) = CSK (human) (UniProt P41240)
Chain of CSK (human) (P41240 whole entry, looked up): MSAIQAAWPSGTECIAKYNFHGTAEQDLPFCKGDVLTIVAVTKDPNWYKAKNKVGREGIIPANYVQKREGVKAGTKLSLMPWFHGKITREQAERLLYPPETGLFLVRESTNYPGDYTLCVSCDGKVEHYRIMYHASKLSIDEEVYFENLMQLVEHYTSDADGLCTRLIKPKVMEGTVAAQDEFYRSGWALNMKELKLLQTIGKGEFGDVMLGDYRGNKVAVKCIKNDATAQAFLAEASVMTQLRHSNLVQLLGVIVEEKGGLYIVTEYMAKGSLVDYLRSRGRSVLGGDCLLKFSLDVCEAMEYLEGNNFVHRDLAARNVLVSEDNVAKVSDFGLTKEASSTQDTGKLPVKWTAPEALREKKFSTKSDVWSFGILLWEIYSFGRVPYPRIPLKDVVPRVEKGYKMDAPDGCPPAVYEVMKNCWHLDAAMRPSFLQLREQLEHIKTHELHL

CDK18 (human) = CDK18 (human) (UniProt Q07002)
AKT1 (human) = AKT1 (human) (UniProt P31749)
Chain of AKT1 (human) (P31749 whole entry, looked up): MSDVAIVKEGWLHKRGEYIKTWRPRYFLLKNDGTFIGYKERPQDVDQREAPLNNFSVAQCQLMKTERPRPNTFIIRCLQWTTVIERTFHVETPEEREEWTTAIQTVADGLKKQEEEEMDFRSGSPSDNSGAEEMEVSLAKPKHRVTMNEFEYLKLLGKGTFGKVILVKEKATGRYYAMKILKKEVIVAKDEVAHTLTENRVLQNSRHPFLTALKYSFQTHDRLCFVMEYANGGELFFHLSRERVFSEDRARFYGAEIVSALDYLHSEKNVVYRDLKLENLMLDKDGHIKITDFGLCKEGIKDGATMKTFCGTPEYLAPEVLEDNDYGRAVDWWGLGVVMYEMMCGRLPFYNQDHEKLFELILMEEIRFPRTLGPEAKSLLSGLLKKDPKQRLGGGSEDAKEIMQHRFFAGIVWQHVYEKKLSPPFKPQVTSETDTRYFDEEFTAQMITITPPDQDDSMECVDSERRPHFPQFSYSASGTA

HUNK (human) = HUNK (human) (UniProt P57058)
MARK3 (human) = MARK3 (human) (UniProt P27448)
STK32C (human) = STK32C (human) (UniProt Q86UX6)
STK25 (human) = STK25 (human) (UniProt O00506)
STK39 (human) = STK39 (human) (UniProt Q9UEW8)
MAP3K9 (human) = MAP3K9 (human) (UniProt P80192)
BRSK1 (human) = BRSK1 (human) (UniProt Q8TDC3)

Chain of RPS6KA2 KD1 (human) (Q15349 whole entry, looked up): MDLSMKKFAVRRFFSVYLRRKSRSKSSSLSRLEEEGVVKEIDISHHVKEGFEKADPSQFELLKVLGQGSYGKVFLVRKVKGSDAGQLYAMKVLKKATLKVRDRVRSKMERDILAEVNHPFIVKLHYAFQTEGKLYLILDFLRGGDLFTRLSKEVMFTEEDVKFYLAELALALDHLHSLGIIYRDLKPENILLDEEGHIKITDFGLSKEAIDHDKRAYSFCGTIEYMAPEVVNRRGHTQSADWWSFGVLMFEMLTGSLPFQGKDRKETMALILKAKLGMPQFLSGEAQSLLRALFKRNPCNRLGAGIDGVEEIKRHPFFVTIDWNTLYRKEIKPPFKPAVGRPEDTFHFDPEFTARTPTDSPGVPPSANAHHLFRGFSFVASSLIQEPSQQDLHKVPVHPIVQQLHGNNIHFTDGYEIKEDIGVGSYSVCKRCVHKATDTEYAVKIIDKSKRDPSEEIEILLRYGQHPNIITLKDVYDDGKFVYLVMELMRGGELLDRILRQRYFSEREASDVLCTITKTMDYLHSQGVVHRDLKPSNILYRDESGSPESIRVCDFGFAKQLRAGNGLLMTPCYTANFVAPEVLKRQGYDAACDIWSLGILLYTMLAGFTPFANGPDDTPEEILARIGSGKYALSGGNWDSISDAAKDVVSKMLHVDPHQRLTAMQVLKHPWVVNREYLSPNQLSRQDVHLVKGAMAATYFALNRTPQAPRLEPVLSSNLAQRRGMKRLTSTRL

Cc1cc([C@@H](C)Nc2ccccc2C(=O)O)c2nc(N3CCOCC3)cc(=O)n2c1 gave a kinase still bound, per cent of control (RPS6KA2 KD1 (human)) of 100%, a kinase still bound, per cent of control [1] of 78% and a kinase still bound, per cent of control (SIK2 (human)) of 90%. For the same molecule, the kinase still bound, per cent of control (MAPK4 (human)) was 82%, the kinase still bound, per cent of control (MKNK1 (human)) was 31% and the kinase still bound, per cent of control (PRKCI (human)) was 94%. It also gave a kinase still bound, per cent of control (AKT2 (human)) of 100%, a kinase still bound, per cent of control (RPS6KA4 KD2 (human)) of 83% and a kinase still bound, per cent of control (MYLK3 (human)) of 82%. It also gave a kinase still bound, per cent of control (INSR (human)) of 79%, a kinase still bound, per cent of control (ABL2 (human)) of 100% and a kinase still bound, per cent of control (CAMK4 (human)) of 100%. The kinase still bound, per cent of control (LIMK2 (human)) was 100%, the kinase still bound, per cent of control (TLK2 (human)) was 100% and the kinase still bound, per cent of control [2] was 100%. For the same molecule, the kinase still bound, per cent of control (GSK3A (human)) was 100%, the kinase still bound, per cent of control (DSTYK (human)) was 90% and the kinase still bound, per cent of control (BLK (human)) was 100%. For the same molecule, the kinase still bound, per cent of control (SNRK (human)) was 54%, the kinase still bound, per cent of control (EPHB1 (human)) was 99% and the kinase still bound, per cent of control (DAPK2 (human)) was 74%. The kinase still bound, per cent of control (TAOK2 (human)) was 89%, the kinase still bound, per cent of control (ROCK1 (human)) was 90% and the kinase still bound, per cent of control (CaMK1 (human)) was 94%. It also gave a kinase still bound, per cent of control (DDR1 (human)) of 81%, a kinase still bound, per cent of control (IRAK1 (human)) of 100% and a kinase still bound, per cent of control (IRAK3 (human)) of 75%. For the same molecule, the kinase still bound, per cent of control [3] was 93%, the kinase still bound, per cent of control (CSNK1G2 (human)) was 100% and the kinase still bound, per cent of control (AKT3 (human)) was 80%. It also gave a kinase still bound, per cent of control (HIPK3 (human)) of 68%, a kinase still bound, per cent of control (CDKL1 (human)) of 100% and a kinase still bound, per cent of control (CSK (human)) of 98%. It also gave a kinase still bound, per cent of control (CDK18 (human)) of 83%, a kinase still bound, per cent of control (AKT1 (human)) of 100% and a kinase still bound, per cent of control (HUNK (human)) of 94%. For the same molecule, the kinase still bound, per cent of control (MARK3 (human)) was 95%, the kinase still bound, per cent of control (STK32C (human)) was 89% and the kinase still bound, per cent of control (STK25 (human)) was 100%. For the same molecule, the kinase still bound, per cent of control (STK39 (human)) was 58%, the kinase still bound, per cent of control (MAP3K9 (human)) was 100% and the kinase still bound, per cent of control (BRSK1 (human)) was 100%.
